# Assay results taken from article PMC7504348 (Molecules, 2020).
# Like-named read-outs stand apart in the source and are kept apart here.
# Assays:
# β-secretase (BACE-1) = biological target: T1, β-secretase (BACE-1) (Homo sapiens, UniProt P56817); experiment: biochemical; details: reported with SD
# T1 construct: purchased Sigma–Aldrich
# Method: β-secretase (BACE-1) Activity Detection Kit (Fluorescent) was purchased from Sigma–Aldrich and used to determine the effect of the synthesized chalcones on β-secretase activity. The assay was carried out according to the manufacturer’s protocol. The enzyme solution (0.3 units/uL, 2 μL) was reacted with the 50 μM of the substrate (7-methoxycumarin- 4-acetyl-(Asn670, Lue671)-amyloid β/A4 precursor protein 770 fragment 667–676-(2,4-dinitrophenyl))Lys-Arg-Arg amide trifluoroacetate salt and sulfated polysaccharide samples (2–5 mg/mL) in a fluorescence assay buffer in different wells. Baseline readings were measure immediately on a Hitachi F-7000 (excitation: 320 nm; emission: 405 nm) fluorescence spectrophotometer and repeated after 2 h incubation at 37 °C. […] The method was as described earlier.
# [1] = biological target: T2, acetylcolinesterase from electric eel (Type VI) (Electrophorus electricus, UniProt O42275); experiment: biochemical; details: reported with SD; assayed in triplicate; read-out: AChE IC50
# T2 construct: purified acetylcolinesterase from electric eel (Type VI); tissue Type VI; host or cells: electric eel
# Method: The assay was performed in 96-well microtiter plates in the same condition for both chalcones and control substance. 25 µL of 100 mM sodium phosphate buffer pH 8, 25 µL of sample and 25 µL acetylcholinesterase solutions containing 0.54 U/mL were mixed in each well of the plate and allowed to incubate for 15 min at 25 °C. Subsequently, 25 µL of a solution of ATCI (15 mM, dissolved in water) and 125 µL of 3 mM DTNB (5,5’-dithio-bis-nitro benzoic acid) were added. The absorbance at 405 nm was recorded during the first 5 min of the reaction. […] Percentages (%) of AChE inhibitions of tested compounds were calculated from the absorbance values as indicated in Equation (1):% I = [(A0E − A0) − (Ac − A0C)]/(A0E − A0)(1) where I is the percent inhibition of acetylcholinesterase; A0E is the absorbance value of the control blank sample with enzyme; A0 is the absorbance value of blank sample; Ac is the absorbance value of the tested sample; A0C is the absorbance value of blank test sample.
# The method was as described earlier.
# [2] = pIC50 = −logIC50, read-out: BACE-1 pIC50 Observed (converted)
# T1 sequence (P56817 46-501): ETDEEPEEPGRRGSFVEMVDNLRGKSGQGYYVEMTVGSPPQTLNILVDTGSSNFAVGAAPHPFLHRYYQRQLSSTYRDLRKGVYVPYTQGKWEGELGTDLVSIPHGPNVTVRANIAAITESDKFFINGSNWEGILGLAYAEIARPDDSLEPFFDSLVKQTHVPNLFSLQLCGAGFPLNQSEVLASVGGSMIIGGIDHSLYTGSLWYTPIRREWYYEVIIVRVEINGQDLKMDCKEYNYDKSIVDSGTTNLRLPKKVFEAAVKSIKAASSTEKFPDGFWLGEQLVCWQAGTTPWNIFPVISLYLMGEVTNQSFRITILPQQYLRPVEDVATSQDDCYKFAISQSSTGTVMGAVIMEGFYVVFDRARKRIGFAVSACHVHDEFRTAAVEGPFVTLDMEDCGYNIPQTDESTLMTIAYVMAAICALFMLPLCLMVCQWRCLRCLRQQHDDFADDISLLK
# T2 sequence (O42275 24-633): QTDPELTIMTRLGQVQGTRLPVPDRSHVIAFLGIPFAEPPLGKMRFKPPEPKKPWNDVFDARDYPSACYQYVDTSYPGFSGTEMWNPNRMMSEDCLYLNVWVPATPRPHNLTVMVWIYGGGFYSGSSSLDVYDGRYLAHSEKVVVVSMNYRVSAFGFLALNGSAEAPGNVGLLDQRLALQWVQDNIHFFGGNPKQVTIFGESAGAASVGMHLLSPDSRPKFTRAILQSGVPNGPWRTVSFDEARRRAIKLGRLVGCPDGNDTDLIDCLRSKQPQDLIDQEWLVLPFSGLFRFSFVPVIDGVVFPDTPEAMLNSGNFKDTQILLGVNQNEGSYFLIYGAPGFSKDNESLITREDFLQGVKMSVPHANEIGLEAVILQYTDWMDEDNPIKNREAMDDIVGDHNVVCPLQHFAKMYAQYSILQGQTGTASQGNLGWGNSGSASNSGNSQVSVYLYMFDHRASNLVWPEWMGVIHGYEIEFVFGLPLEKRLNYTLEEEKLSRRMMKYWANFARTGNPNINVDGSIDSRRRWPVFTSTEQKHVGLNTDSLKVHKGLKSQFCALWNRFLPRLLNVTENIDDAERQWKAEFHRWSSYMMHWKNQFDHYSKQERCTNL
Structure (SMILES),IC50 (β-secretase (BACE-1); [2]),IC50 (β-secretase (BACE-1); read-out: BACE-1 IC50),IC50 [1]
CN(C)CCCN1c2ccccc2Sc2ccc(C(=O)/C=C/c3ccc(OCc4ccccc4)cc3)cc21 [AC13],3.02 µM,3.03 ± 0.21 µM,11.8 ± 0.63 µM
CN(C)CCCN1c2ccccc2Sc2ccc(C(=O)/C=C/c3ccccc3Cl)cc21 [AC8],2.95 µM,2.97 ± 0.05 µM,15.8 ± 1.08 µM
CN(C)CCCN1c2ccccc2Sc2ccc(C(=O)/C=C/c3c(F)cccc3Cl)cc21 [AC7],0.447 µM,0.45 ± 0.04 µM,40.7 ± 2.48 µM
CN(C)CCCN1c2ccccc2Sc2ccc(C(=O)/C=C/c3ccc(Cl)cc3)cc21 [AC5],1.23 µM,1.24 ± 0.12 µM,60.3 ± 1.84 µM
"COc1ccc(/C=C/C(=O)c2ccc3c(c2)N(CCCN(C)C)c2ccccc2S3)cc1 [AC3, (E)-1-(10-(3-(dimethylamino)propyl)-10H-phenothiazin-2-yl)-3-(4-methoxyphenyl)prop-2-en-1-one]",4.47 µM,4.48 ± 0.4 µM,11.5 ± 1.29 µM
"CN(C)CCCN1c2ccccc2Sc2ccc(C(=O)/C=C/c3ccccc3)cc21 [AC1, (E)-1-(10-(3-(dimethylamino)propyl)-10H-phenothiazin-2-yl)-3-phenylprop-2-en-1-one]",6.31 µM,6.34 ± 0.46 µM,33.9 ± 1.45 µM
"COc1cccc(/C=C/C(=O)c2ccc3c(c2)N(CCCN(C)C)c2ccccc2S3)c1 [AC2, (E)-1-(10-(3-(dimethylamino)propyl)-10H-phenothiazin-2-yl)-3-(3-methoxyphenyl)prop-2-en-1-one]",3.02 µM,3 µM,30.9 ± 2.1 µM
CN(C)CCCN1c2ccccc2Sc2ccc(C(=O)/C=C/c3ccc(N(C)C)cc3)cc21 [AC12],0.347 µM,0.35 ± 0.04 µM,1.1 ± 0.24 µM
"COc1cc(/C=C/C(=O)c2ccc3c(c2)N(CCCN(C)C)c2ccccc2S3)cc(OC)c1OC [AC4, (E)-1-(10-(3-(dimethylamino)propyl)-10H-phenothiazin-2-yl)-3-(3,4,5-trimethoxyphenyl)prop-2-en-1-one]",0.155 µM,0.16 ± 0.03 µM,3.63 ± 0.61 µM
CN(C)CCCN1c2ccccc2Sc2ccc(C(=O)/C=C/c3cccc(Br)c3)cc21 [AC10],2 µM,1.99 ± 0.21 µM,24.6 ± 1.09 µM
"CN(C)CCCN1c2ccccc2Sc2ccc(C(=O)/C=C/c3ccc(F)cc3)cc21 [AC9, (E)-1-(10-(3-(dimethylamino)propyl)-10H-phenothiazin-2-yl)-3-(4-fluorophenyl)prop-2-en-1-one]",3.72 µM,3.72 ± 0.21 µM,25.1 ± 0.83 µM
CN(C)CCCN1c2ccccc2Sc2ccc(C(=O)/C=C/c3ccc(Cl)cc3Cl)cc21 [AC6],0.501 µM,0.5 µM,20 ± 1.57 µM
CN(C)CCCN1c2ccccc2Sc2ccc(C(=O)/C=C/c3ccccc3C(F)(F)F)cc21 [AC11],0.398 µM,0.4 µM,186 ± 4.52 µM
